The record followed here is patent US7087634B2, “Cyclic AMP-specific phosphodiesterase inhibitors” (ICOS Corporation, priority 1999, dated 2006).

One experiment has as its target T1, PDE7 (Homo sapiens, UniProt Q13946).
T1 construct: made in house; host or cells: Saccharomyces cerevisiae BJ2-54
The experiment is described as follows: Inhibition of PDE7. It is filed as biochemical. As to the method: (§1) Recombinant production of human PDE1B, PDE2, PDE4A, PDE4B, PDE4C, PDE4D, PDE5, and PDE7 was carried out similarly to that described in Example 7 of U.S. Pat. No. 5,702,936, incorporated herein by reference, except that the yeast transformation vector employed, which is derived from the basic ADH2 plasmid described in Price et al., Methods in Enzymology, 185, pp. 308–318 (1990), incorporated yeast ADH2 promoter and terminator sequences and the Saccharomyces cerevisiae host was the protease-deficient strain BJ2–54 deposited on Aug. 31, 1998 with the American Type Culture Collection, Manassas, Va., under accession number ATCC 74465. Transformed host cells were grown in 2×SC-leu medium, pH 6.2, with trace metals, and vitamins. After 24 hours, YEP medium-containing glycerol was added to a final concentration of 2×YET/3% glycerol. […]
(§2) Phosphodiesterase activity of the preparations was determined as follows. […] The [32P]5′-AMP or [32P]5′-GMP then was quantitatively converted to free [32P]phosphate and unlabeled adenosine or guanosine by the action of snake venom 5′-nucleotidase. […] PDE enzyme was present in quantities that yield <30% total hydrolysis of substrate (linear assay conditions). […] After centrifugation (750×g for 3 minutes) to sediment the charcoal, a sample of the supernatant was taken for radioactivity determination in a scintillation counter and the PDE activity was calculated. […]

A further experiment addresses T2, PDE5 (Homo sapiens, UniProt O76074).
T2 construct: made in house; host or cells: Saccharomyces cerevisiae BJ2-54
The experiment is described as follows: Inhibition of PDE5. It is filed as biochemical. As to the method: as §1, §2

T1 sequence (Q13946 whole entry): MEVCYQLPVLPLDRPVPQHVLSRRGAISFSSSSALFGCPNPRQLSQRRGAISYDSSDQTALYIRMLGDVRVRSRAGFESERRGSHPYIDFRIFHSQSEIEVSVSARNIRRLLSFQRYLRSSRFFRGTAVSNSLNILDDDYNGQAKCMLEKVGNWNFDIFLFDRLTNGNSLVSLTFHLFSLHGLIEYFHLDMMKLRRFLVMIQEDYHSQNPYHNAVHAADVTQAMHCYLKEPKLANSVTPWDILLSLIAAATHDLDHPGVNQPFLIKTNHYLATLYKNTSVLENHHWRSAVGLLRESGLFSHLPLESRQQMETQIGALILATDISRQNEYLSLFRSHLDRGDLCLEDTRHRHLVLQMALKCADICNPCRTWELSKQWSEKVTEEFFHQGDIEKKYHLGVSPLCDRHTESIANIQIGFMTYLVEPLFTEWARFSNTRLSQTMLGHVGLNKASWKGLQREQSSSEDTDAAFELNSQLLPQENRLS

Consider `CCOC(=O)c1c(C)nn(-c2cccc([N+](=O)[O-])c2)c1C` [Example 2, 3,5-dimethyl-1-(3-nitrophenyl)-1H-pyrazole-4-carboxylic acid ethyl ester], for which the results for the IC50 at PDE7 and against PDE5 were 39 µM and 25.6 µM, respectively.
